Experimental data as given in patent US20260201008A1, “SECRETIN-DERIVED GLP1R SELECTIVE AGONISTS” (GUBRA A/S, priority 2023, published 2026).
Numbered stars: 1 amine (or outer) side, 2 acyl side, 3 side chain; on linkers, the order of the positions; unused ones are H or OH. Square brackets hold non-standard residues; d marks the D form. Side chains are listed from the residue outwards. Peptide text beside a SMILES is read from it. * marks the point of attachment. C20 diacid = O=C(O)CCCCCCCCCCCCCCCCCCC(=O)*; γGlu = O=C(O)[C@H](CCC(=O)[*:2])N[*:1]; AEEA = NCCOCCOCC(=O)O; Aib = CC(C)(N)C(=O)O

What was measured:
GLP1R = GLP1R (Homo sapiens, UniProt P43220); experiment: hGLP1R potency, cAMP accumulation in CHO-K1 cells stably overexpressing hGLP1R; assay type: cell-based; parameters: host or cells: CHO-K1; settings: for EC50: cAMP accumulation, CHO-K1 cells overexpressing hGLP1R, read-out: hGLP1R pEC50 (converted); for SCTR EC50/GLP1R EC50 ratio: selectivity for hGLP1R over hSCTR, cAMP accumulation in CHO-K1 cells
Method in brief: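 2000 cells/well, DPBS + 0.05% casein + 0.5 mM IBMX; 30 min RT stimulation; HTRF cAMP detection after 1 h. Purified: 3-fold ×11, n=2; crude: 10-fold ×5, n=1. EC50 by variable-slope fit.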

[1] = Turbidity of crude library peptides (absorbance at 600 nm); assay type: physicochemical; settings: Physical stability of peptides
Method in brief: (§1)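 Turbidity is the absorbance at 600 nm, taken before heating. Fibril signal is the mean ThT emission at 480 nm (450 nm excitation), read every 10 min over 72 h at 40° C with 700 rpm shaking between reads. Peptides at 267 μM, pH 4.0 acetate or pH 7.0 phosphate buffer (50 mM), 4 μM ThT final.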

SCTR = SCTR (Homo sapiens, UniProt P47872); experiment: hSCTR potency, cAMP accumulation in CHO-K1 cells stably overexpressing hSCTR; assay type: cell-based; parameters: alternatively Euroscreen ES-712-AF; FAST-0161L; host or cells: CHO-K1; settings: cAMP accumulation, CHO-K1 cells overexpressing hSCTR; read-out: hSCTR pEC50 (converted)
Method in brief: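 Thawed CHO-K1 cells carrying stable hSCTR are plated into casein/IBMX buffer (0.05%, 0.5 mM), dosed immediately for 30 min at room temperature, then cAMP is detected by TR-FRET. Purified peptides run as 11 three-fold dilutions in duplicate, and curves are fitted with variable slope.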

[2] = Fibril formation of crude library peptides (Thioflavin T); assay type: physicochemical; parameters: key: average ThT fluorescence emission at 480 nm (ex 450 nm), raw units; settings: Physical stability of peptides
Method in brief: as §1

GLP1R, sequence (P43220 24-463): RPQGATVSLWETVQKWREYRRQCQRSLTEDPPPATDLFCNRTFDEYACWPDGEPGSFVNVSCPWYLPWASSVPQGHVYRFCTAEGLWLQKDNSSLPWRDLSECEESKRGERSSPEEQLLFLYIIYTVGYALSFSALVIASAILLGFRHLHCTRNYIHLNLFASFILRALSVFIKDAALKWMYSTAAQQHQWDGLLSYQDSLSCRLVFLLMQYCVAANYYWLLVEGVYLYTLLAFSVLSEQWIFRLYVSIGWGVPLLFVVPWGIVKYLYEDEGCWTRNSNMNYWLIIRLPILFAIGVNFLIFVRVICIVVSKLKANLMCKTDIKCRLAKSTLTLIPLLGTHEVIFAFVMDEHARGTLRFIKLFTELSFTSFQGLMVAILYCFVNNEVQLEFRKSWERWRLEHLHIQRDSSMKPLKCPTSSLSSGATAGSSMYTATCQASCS
SCTR, sequence (P47872 23-440): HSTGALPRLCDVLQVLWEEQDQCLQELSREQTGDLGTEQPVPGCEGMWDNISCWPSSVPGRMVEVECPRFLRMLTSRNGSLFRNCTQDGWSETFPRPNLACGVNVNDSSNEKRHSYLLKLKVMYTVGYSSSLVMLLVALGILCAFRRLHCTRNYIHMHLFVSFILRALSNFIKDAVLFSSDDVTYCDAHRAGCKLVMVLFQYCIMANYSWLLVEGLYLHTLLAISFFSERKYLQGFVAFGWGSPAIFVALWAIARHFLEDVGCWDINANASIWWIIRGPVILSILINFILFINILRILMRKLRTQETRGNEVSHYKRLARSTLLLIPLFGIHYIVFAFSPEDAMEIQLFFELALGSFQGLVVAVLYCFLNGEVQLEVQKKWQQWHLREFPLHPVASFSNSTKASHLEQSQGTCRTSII

SMILES | EC50 (GLP1R) | SCTR EC50/GLP1R EC50 ratio (GLP1R) | Turbidity (pH 7) [1] | EC50 (SCTR) | Fibril formation [2]
CC(C)C[C@H](NC(=O)[C@H](Cc1ccccc1)NC(=O)[C@H](CCCNC(=N)N)NC(=O)[C@H](CCC(N)=O)NC(=O)[C@H](CC(C)C)NC(=O)C(C)(C)NC(=O)[C@H](C)NC(=O)[C@H](CCC(=O)O)NC(=O)[C@H](CCC(=O)O)NC(=O)[C@H](CCCCNC(=O)COCCOCCNC(=O)COCCOCCNC(=O)CC[C@H](NC(=O)CCCCCCCCCCCCCCCCCCC(=O)O)C(=O)O)NC(=O)[C@H](CC(C)C)NC(=O)[C@H](Cc1ccc(O)cc1)NC(=O)[C@H](CO)NC(=O)[C@@H](NC(=O)[C@H](CC(=O)O)NC(=O)[C@H](CO)NC(=O)[C@@H](NC(=O)[C@H](Cc1ccccc1)NC(=O)[C@@H](NC(=O)CNC(=O)[C@H](CCC(=O)O)NC(=O)[C@H](C)NC(=O)[C@@H](N)Cc1c[nH]cn1)[C@@H](C)O)[C@@H](C)O)C(C)C)C(=O)N[C@@H](CCC(=O)O)C(=O)N[C@@H](Cc1c[nH]cn1)C(=O)N[C@@H](CC(C)C)C(=O)N[C@H](C(N)=O)C(C)C [compound 166] (H-HAEGTFTSDVSYLK([AEEA-AEEA-γGlu-C20 diacid])EEA[Aib]LQRFLEHLV-NH2) | 0.00794 nM | 41476 | 0.08 | 316 nM | 4253
CC(C)C[C@H](NC(=O)[C@H](Cc1ccccc1)NC(=O)[C@H](CCCNC(=N)N)NC(=O)[C@H](CCC(N)=O)NC(=O)[C@H](CC(C)C)NC(=O)C(C)(C)NC(=O)[C@H](C)NC(=O)[C@H](CCC(=O)O)NC(=O)[C@H](CCC(=O)O)NC(=O)[C@H](CCCCNC(=O)COCCOCCNC(=O)COCCOCCNC(=O)CC[C@H](NC(=O)CCCCCCCCCCCCCCCCCCC(=O)O)C(=O)O)NC(=O)[C@H](CC(C)C)NC(=O)[C@H](Cc1ccc(O)cc1)NC(=O)[C@H](CO)NC(=O)[C@@H](NC(=O)[C@H](CC(=O)O)NC(=O)[C@H](CO)NC(=O)[C@@H](NC(=O)[C@H](Cc1ccccc1)NC(=O)[C@@H](NC(=O)CNC(=O)[C@H](CCC(=O)O)NC(=O)C(C)(C)NC(=O)[C@@H](N)Cc1c[nH]cn1)[C@@H](C)O)[C@@H](C)O)C(C)C)C(=O)N[C@@H](CCC(=O)O)C(=O)N[C@@H](Cc1c[nH]c2ccccc12)C(=O)N[C@@H](CC(C)C)C(=O)N[C@H](C(N)=O)C(C)C [compound 169] (H-H[Aib]EGTFTSDVSYLK([AEEA-AEEA-γGlu-C20 diacid])EEA[Aib]LQRFLEWLV-NH2) | 0.0398 nM | 14974 | 0.08 | 501 nM | 3552
CC(C)C[C@H](NC(=O)[C@H](Cc1ccccc1)NC(=O)[C@H](CCCNC(=N)N)NC(=O)[C@H](CCC(N)=O)NC(=O)[C@H](CC(C)C)NC(=O)C(C)(C)NC(=O)[C@H](C)NC(=O)[C@H](CCC(=O)O)NC(=O)[C@H](CCC(=O)O)NC(=O)[C@H](CCCCNC(=O)COCCOCCNC(=O)COCCOCCNC(=O)CC[C@H](NC(=O)CCCCCCCCCCCCCCCCCCC(=O)O)C(=O)O)NC(=O)[C@H](CC(C)C)NC(=O)[C@H](Cc1ccc(O)cc1)NC(=O)[C@H](CO)NC(=O)[C@@H](NC(=O)[C@H](CC(=O)O)NC(=O)[C@H](CO)NC(=O)[C@@H](NC(=O)[C@H](Cc1ccccc1)NC(=O)[C@@H](NC(=O)CNC(=O)[C@H](CC(C)C)NC(=O)C(C)(C)NC(=O)[C@@H](N)Cc1c[nH]cn1)[C@@H](C)O)[C@@H](C)O)C(C)C)C(=O)N[C@@H](CCC(=O)O)C(=O)N[C@@H](Cc1c[nH]cn1)C(=O)N[C@@H](CC(C)C)C(=O)N[C@H](C(N)=O)C(C)C [compound 170] (H-H[Aib]LGTFTSDVSYLK([AEEA-AEEA-γGlu-C20 diacid])EEA[Aib]LQRFLEHLV-NH2) | 0.0251 nM | 873474 | 0.08 | 25100 nM | 3337
CC(C)C[C@H](NC(=O)[C@H](Cc1ccccc1)NC(=O)[C@H](CCCNC(=N)N)NC(=O)[C@H](CCC(N)=O)NC(=O)[C@H](CC(C)C)NC(=O)C(C)(C)NC(=O)[C@H](C)NC(=O)[C@H](CCC(=O)O)NC(=O)[C@H](CCC(=O)O)NC(=O)[C@H](CCCCNC(=O)COCCOCCNC(=O)COCCOCCNC(=O)CC[C@H](NC(=O)CCCCCCCCCCCCCCCCCCC(=O)O)C(=O)O)NC(=O)[C@H](CC(C)C)NC(=O)[C@H](Cc1ccc(O)cc1)NC(=O)[C@H](CO)NC(=O)[C@@H](NC(=O)[C@H](CC(=O)O)NC(=O)[C@H](CO)NC(=O)[C@@H](NC(=O)[C@H](Cc1ccccc1)NC(=O)[C@@H](NC(=O)CNC(=O)[C@H](Cc1c[nH]cn1)NC(=O)C(C)(C)NC(=O)[C@@H](N)Cc1c[nH]cn1)[C@@H](C)O)[C@@H](C)O)C(C)C)C(=O)N[C@@H](CCC(=O)O)C(=O)N[C@@H](Cc1c[nH]cn1)C(=O)N[C@@H](CC(C)C)C(=O)N[C@H](C(N)=O)C(C)C [compound 171] (H-H[Aib]HGTFTSDVSYLK([AEEA-AEEA-γGlu-C20 diacid])EEA[Aib]LQRFLEHLV-NH2) | 0.158 nM | 209459 | 0.08 | 31600 nM | 3473

Results, then the compound that gave them:

EC50 (GLP1R) | SCTR EC50/GLP1R EC50 ratio (GLP1R) | Turbidity (pH 7) [1] | EC50 (SCTR) | Fibril formation [2] | SMILES
0.00631 nM | 16446 | 0.08 | 100 nM | 4018 | CC(C)C[C@H](NC(=O)CNC(=O)[C@H](CO)NC(=O)[C@@H](NC(=O)[C@H](CC(=O)O)NC(=O)[C@H](CO)NC(=O)[C@@H](NC(=O)[C@H](Cc1ccccc1)NC(=O)[C@@H](NC(=O)CNC(=O)[C@H](CCC(=O)O)NC(=O)C(C)(C)NC(=O)[C@@H](N)Cc1c[nH]cn1)[C@@H](C)O)[C@@H](C)O)C(C)C)C(=O)N[C@@H](CCCCNC(=O)COCCOCCNC(=O)COCCOCCNC(=O)CC[C@H](NC(=O)CCCCCCCCCCCCCCCCCCC(=O)O)C(=O)O)C(=O)N[C@@H](CCC(=O)O)C(=O)N[C@@H](CCC(=O)O)C(=O)N[C@@H](C)C(=O)NC(C)(C)C(=O)N[C@@H](CC(C)C)C(=O)N[C@@H](CCC(N)=O)C(=O)N[C@@H](CCCNC(=N)N)C(=O)N[C@@H](Cc1ccccc1)C(=O)N[C@@H](CC(C)C)C(=O)N[C@@H](CCC(=O)O)C(=O)N[C@@H](Cc1c[nH]cn1)C(=O)N[C@@H](CC(C)C)C(=O)N[C@H](C(N)=O)C(C)C [compound 167] (H-H[Aib]EGTFTSDVSGLK([AEEA-AEEA-γGlu-C20 diacid])EEA[Aib]LQRFLEHLV-NH2)
0.0158 nM | 1279 | 0.08 | 20 nM | 2942 | CC[C@H](C)[C@H](NC(=O)[C@H](CO)NC(=O)[C@@H](NC(=O)[C@H](CC(=O)O)NC(=O)[C@H](CO)NC(=O)[C@@H](NC(=O)[C@H](Cc1ccccc1)NC(=O)[C@@H](NC(=O)CNC(=O)[C@H](CCC(=O)O)NC(=O)C(C)(C)NC(=O)[C@@H](N)Cc1c[nH]cn1)[C@@H](C)O)[C@@H](C)O)C(C)C)C(=O)N[C@@H](CC(C)C)C(=O)N[C@@H](CCCCNC(=O)COCCOCCNC(=O)COCCOCCNC(=O)CC[C@H](NC(=O)CCCCCCCCCCCCCCCCCCC(=O)O)C(=O)O)C(=O)N[C@@H](CCC(=O)O)C(=O)N[C@@H](CCC(=O)O)C(=O)N[C@@H](C)C(=O)NC(C)(C)C(=O)N[C@@H](CC(C)C)C(=O)N[C@@H](CCC(N)=O)C(=O)N[C@@H](CCCNC(=N)N)C(=O)N[C@@H](Cc1ccccc1)C(=O)N[C@@H](CC(C)C)C(=O)N[C@@H](CCC(=O)O)C(=O)N[C@@H](Cc1c[nH]cn1)C(=O)N[C@@H](CC(C)C)C(=O)N[C@H](C(N)=O)C(C)C [compound 172] (H-H[Aib]EGTFTSDVSILK([AEEA-AEEA-γGlu-C20 diacid])EEA[Aib]LQRFLEHLV-NH2)
0.0126 nM | 13696 | 0.08 | 158 nM | 2836 | CC(C)C[C@H](NC(=O)[C@H](Cc1ccccc1)NC(=O)[C@H](CCCNC(=N)N)NC(=O)[C@H](CCC(N)=O)NC(=O)[C@H](CC(C)C)NC(=O)C(C)(C)NC(=O)[C@H](C)NC(=O)[C@H](CCC(=O)O)NC(=O)[C@H](CCC(=O)O)NC(=O)[C@H](CCCCNC(=O)COCCOCCNC(=O)COCCOCCNC(=O)CC[C@H](NC(=O)CCCCCCCCCCCCCCCCCCC(=O)O)C(=O)O)NC(=O)[C@H](CC(C)C)NC(=O)[C@H](Cc1ccccc1)NC(=O)[C@H](CO)NC(=O)[C@@H](NC(=O)[C@H](CC(=O)O)NC(=O)[C@H](CO)NC(=O)[C@@H](NC(=O)[C@H](Cc1ccccc1)NC(=O)[C@@H](NC(=O)CNC(=O)[C@H](CCC(=O)O)NC(=O)C(C)(C)NC(=O)[C@@H](N)Cc1c[nH]cn1)[C@@H](C)O)[C@@H](C)O)C(C)C)C(=O)N[C@@H](CCC(=O)O)C(=O)N[C@@H](Cc1c[nH]cn1)C(=O)N[C@@H](CC(C)C)C(=O)N[C@H](C(N)=O)C(C)C [compound 173] (H-H[Aib]EGTFTSDVSFLK([AEEA-AEEA-γGlu-C20 diacid])EEA[Aib]LQRFLEHLV-NH2)
